Test results as given in a melting point compilation (Tetko et al.; mined from patent text by program, amines drawn as free bases though some values may be those of a salt).

First: O=S(=O)(c1ccc(N2CCCCCC2)cc1)N1CCCC1=S
Second: CCOC(=O)N1CCc2nc3ccccc3c(N3CCCC3)c2CC1
The melting point of the first is higher: 172 to 173 °C for the first, 111 °C for the second.

First: O=C(O)c1cccc2c(-c3ccccc3)coc12
Second: O=C(NC(Cc1ccccc1)C(=O)O)c1ccccc1O (centres undefined)
The melting point of the first is higher: 220 to 222 °C for the first, 52 to 53 °C for the second.

Compared with `CNCCC(O)(c1ccc(Br)cc1)c1ccccn1` (centres undefined), `CCNC(=O)c1ccc(-n2nnc(C(=O)NC3CC3)c2CS(=O)(=O)c2ccccc2)cc1` is higher in melting point: 81 to 88 °C for the first, 169 to 172 °C for the second.

First: CCCCC(=O)SCC(Cc1ccccc1)C(=O)Nc1cc(C)cc(C(=O)O)c1 (centres undefined)
Second: COc1ccc(C(=O)Nc2ccccc2)cc1NCc1cc(C)cc(C)c1
The melting point of the first is lower: 151 to 153 °C for the first, 168 to 170 °C for the second.

First: CCC(CC)n1cc(C)nc(Nc2c(C)cc(C)cc2C)c1=O
Second: COCCn1nc(C(=O)NCc2ccc(OC(C)(C)C(=O)O)c(C)c2)cc1-c1ccc(C(C)(C)C)cc1
The melting point of the first is higher: 109 °C for the first, 65 °C for the second.

First: O=C(Nc1ccc(CN2C(=O)C3CCCC3N(C(=O)CN3C(=O)c4ccccc4C3=O)c3ccccc32)cc1)c1ccc2ccccc2c1 (centres undefined)
Second: O=C1c2ccccc2C(=O)N1CCCC(=O)N1c2ccccc2N(Cc2ccccc2)C(=O)[C@H]2CCC[C@H]21 (relative stereo)
The melting point of the first is higher: 191 to 194 °C for the first, 182 to 184 °C for the second.

Compared with `Cc1cc(-n2ccnc2)c2cccc(OCc3c(Cl)ccc(S(=O)(=O)N4CCCC4C(=O)NCC4CCN(CCC(=O)OC(C)(C)C)CC4)c3Cl)c2n1` (centres undefined), `CCCCn1c(=O)n2cnnc2c2[nH]c(-c3cc(S(=O)(=O)N4CCN(C(C)(C)CO)CC4)ccc3OCCC)nc21` is higher in melting point: 92 °C for the first, 237 °C for the second.

Compared with `Fc1ccc(Cn2c(OC3CCN(Cc4ccccc4)CC3)nc3cncnc32)cc1`, `O=C(c1ccnc(Cl)c1)N1CC(c2ccc(F)cc2)C2(CCN(Cc3ccccc3)CC2)C1` (centres undefined) is lower in melting point: 117 °C for the first, 70 to 72 °C for the second.

Compared with `CNC(=S)NS(=O)(=O)c1cc(CCNC(=O)C=Cc2cccs2)ccc1OCC1CCCO1` (centres undefined), `CCOc1cc(N)c(Cl)cc1C(=O)NCC1CN(Cc2ccc(F)cc2)CCO1` (centres undefined) is higher in melting point: 78 °C for the first, 151 to 153 °C for the second.

Going from `Cc1ccc(C(=O)O)c2c1CCCO2` to `O=C1C=C2CCCCC2N1c1ccc(O)cc1` (centres undefined), the melting point rises from 140 °C to 210 °C.

Compared with `O=S(N=Cc1ccccc1)c1nccnc1Cl` (centres undefined), `COc1cc(Br)c(C=O)cc1OCc1ccccc1` is higher in melting point: 113 to 114 °C for the first, 140 to 141 °C for the second.

First: O=Cc1ccc(Cl)c(Cl)c1O
Second: CCC(Sc1ccc(OC)c(Cl)c1Cl)C(=O)O (centres undefined)
The melting point of the first is lower: 97 °C for the first, 143 to 145 °C for the second.

Compared with `COc1cc(OC)cc(C2=NC(CO)Cc3cc(OC)c(OC)cc32)c1` (centres undefined), `COc1ccc(C2(O)OC(=O)C(c3ccc4nsnc4c3)=C2Cc2cc(OC)c(OC3CCCC3)c(OC)c2)cc1` (centres undefined) is lower in melting point: 59 to 62 °C for the first, 40 to 41 °C for the second.

First: CC(C)(C)C1CCC(OO)(OO)CC1
Second: CCOC(=O)CCc1ccc2c(c1)CC(NC(=O)OC(C)(C)C)CC2 (centres undefined)
The melting point of the first is lower: 83 to 84 °C for the first, 100 to 102 °C for the second.

First: CSc1ccc([N+](=O)[O-])nc1
Second: CCc1nc2cc([N+](=O)[O-])ccc2o1
The melting point of the first is higher: 165 to 167 °C for the first, 88 to 90 °C for the second.

Compared with `Cc1c(NC(=O)OCc2ccccc2)cccc1C(C[N+](=O)[O-])c1c[nH]c2cc(OC3CCOC3)ccc12` (centres undefined), `O=C(NN=Cc1ccc2cc(OC(=O)c3ccc([N+](=O)[O-])o3)ccc2c1)OCc1ccccc1` is lower in melting point: 130 °C for the first, 109 to 112 °C for the second.

First: Cc1c(C=NO)c2ccccc2n1-c1ccc(O)c(F)c1
Second: CC(C)(C)CC(C)(C)c1ccc(O)c(-n2nc3ccccc3n2)c1
The melting point of the first is higher: 182 to 184 °C for the first, 101 to 103 °C for the second.

First: Cc1c[nH]c(=O)c2ccccc12
Second: O=C(Cc1ccc(Cl)cc1Cl)Nc1ccccc1
The melting point of the first is higher: 175 to 176 °C for the first, 146 °C for the second.

Compared with `COC(=O)Nc1nc(OC)nc(OC)n1`, `COc1nc(C(=O)O)c(C(=O)NC(C)(C)C)s1` is lower in melting point: 118 to 122 °C for the first, 105 to 110 °C for the second.

First: CCC[C@H]1CC[C@H](CCCOc2ccc(C(=O)O[C@H](C)[C@@H](C)OC(=O)c3ccc(OCCC[C@H]4CC[C@H](CCC)CC4)cc3)cc2)CC1
Second: CC#CCOc1ccc(S(=O)(=O)N(C)C(CCCSc2ccc(Cl)cc2)(NC)C(=O)O)cc1 (centres undefined)
The melting point of the first is lower: 109 °C for the first, 143 to 145 °C for the second.

First: Cc1cc(-c2nnc3c4ccccc4c(OCn4cccn4)nn23)no1
Second: O=C(Nc1noc2ccccc12)N1CCN(c2nc(-c3ccccc3)ns2)CC1
The melting point of the first is higher: 235 to 237 °C for the first, 234 to 235 °C for the second.

Compared with `CCOC(=O)C1C(=O)N(C)c2ccc(Cl)cc2S1(=O)=O` (centres undefined), `CCOC(=O)c1cnn(-c2ccc(Cl)cc2)c1C` is lower in melting point: 86 to 91 °C for the first, 55 to 56 °C for the second.

`CC(C)(C)c1nc2c(Cl)cc(F)c(-n3c(=O)cc(C(F)(F)F)n(N)c3=O)c2o1` and `Cc1nc(-c2ccc(C(C)(C)C)cc2)sc1C(=O)N[C@H](C)[C@](O)(Cn1cncn1)c1ccc(F)cc1F` cannot be ordered by melting point: 90 to 92 °C for the first, 85 to 91 °C for the second.

Compared with `COC(=O)CCCCOc1ccc2nc3[nH]c(=O)n(C)c3cc2c1`, `COCCOc1ccc(CCC(=O)N(CCOC)S(N)(=O)=O)c(Oc2ncc(C(F)(F)F)cc2Cl)c1` is lower in melting point: 223 to 225 °C for the first, 101 °C for the second.

First: COc1ccc2[nH]c(S(=O)Cc3ncc(C)c(N4CCCC4)c3Cl)nc2c1 (centres undefined)
Second: CCOC(=O)c1nc(-c2ccc(Cl)c(OC)c2F)cc(N)c1Cl
The melting point of the first is higher: 145 to 146 °C for the first, 74 to 75 °C for the second.

Compared with `CCCNC(=S)NC1=Nc2ccc(OC(F)(F)F)cc2SC1`, `CCCCNC(=O)N1CC(Oc2ccc(C(F)(F)F)cc2)C1` is lower in melting point: 180 to 182 °C for the first, 132 to 134 °C for the second.

First: OCCc1nccn1CCCc1ccc(OCc2coc(/C=C/c3ccc(F)cc3F)n2)cc1
Second: COc1ccc(-n2nnc3ccc(-c4nnc(CCc5cccc(F)c5)o4)cc32)cc1
The melting point of the first is lower: 94 to 96 °C for the first, 125 to 126 °C for the second.

Compared with `O=[N+]([O-])CSc1ccc(Oc2ccccc2)cc1`, `Cc1ccccc1OCC(O)CNCCCOc1ccccc1` (centres undefined) is lower in melting point: 100 to 102 °C for the first, 73 to 74 °C for the second.

First: OCC=CCOc1nc(F)c(Cl)cc1Cl
Second: COc1c(Cl)cc(-c2ccc(=O)[nH]n2)cc1Cl
The melting point of the first is lower: 30 °C for the first, 245 to 251 °C for the second.

Compared with `O=C1c2ccc(Cl)cc2CC1S(=O)(=O)c1ccccc1` (centres undefined), `O=C(C=Cc1cccc(NS(=O)(=O)/C=C/c2ccccc2)c1)NO` is higher in melting point: 133 °C for the first, 171 °C for the second.

First: COc1ccc(C(=O)Nc2ccccc2)cc1NC(=S)Nc1ccc(S(N)(=O)=O)cc1
Second: O=C(Nc1ccc(Cl)cc1)NC(c1ccccc1)C(O)c1ccccc1 (centres undefined)
The melting point of the first is lower: 193 to 195 °C for the first, 198 °C for the second.

First: Cc1oc(C2(C)CCCCC2)nc1CC#N
Second: CC(C)=NOCc1nc2c(N)nc3c(c2n1CC(C)C)CCCC3
The melting point of the first is lower: 57 to 58 °C for the first, 176 to 177 °C for the second.

First: O=C1O[C@@H]2C[C@@]1(O)c1cc(-c3ccccc3)sc1[C@H]2O
Second: CC(C)c1ccc(-c2ccc(-c3ccccc3)s2)s1
The melting point of the first is higher: 168 to 173 °C for the first, 104 to 106 °C for the second.

First: O=C1c2c(Br)cccc2-n2cnc(-c3noc(CCl)n3)c2[C@@H]2CCN12
Second: N#CC1C=Cc2ccccc2N1C(=O)c1ccccc1 (centres undefined)
The melting point of the first is higher: 210 to 211 °C for the first, 153 to 154 °C for the second.

First: C=C1CC(C(O)=Nc2cc(Cl)cc(Cl)c2)C1C(=O)O (centres undefined)
Second: CS(=O)(=O)Nc1cc2occc(=O)c2cc1O
The melting point of the first is lower: 119 °C for the first, > 250 °C for the second.

Compared with `COC(=O)[C@H](Cc1ccc([N+](=O)[O-])cc1)NC(=O)c1c(C)cccc1Cl`, `Cc1ccc(C(=O)NC(=S)NCc2ccccc2C(N)=O)cc1` is higher in melting point: 120 to 123 °C for the first, 145 to 147 °C for the second.

Compared with `N#Cc1ccc(C#CCN2CCc3nc(N)sc3CC2)cc1`, `CCCN1CCC(=O)C(C(c2ccccc2)c2ccccc2)C1` (centres undefined) is lower in melting point: 174 to 176 °C for the first, 72 to 76 °C for the second.

First: CC#CN(C)c1nc2ccccc2s1
Second: CCc1nc2ccc(N=C=S)cc2s1
The melting point of the first is lower: 58 to 59 °C for the first, 69 to 73 °C for the second.

First: CCCCCCCCCCCCCCn1c(=O)[nH]c2nc3ccccc3n2c1=O
Second: CCCCCCCN(CCCCCSc1nc2cc(C)ccc2[nH]1)C(=O)Nc1ccc(F)cc1F
The melting point of the first is higher: 193 °C for the first, 70 to 72 °C for the second.

Compared with `CON1C(C)(C)CC(OC(=O)c2cccc(C(=O)OC3CC(C)(C)N(OC)C(C)(C)C3)c2)CC1(C)C`, `CCOC(=O)c1ccc(NC(=O)OC(C)(C)C)cc1` is higher in melting point: 99 to 101 °C for the first, 149 to 150 °C for the second.

Compared with `COc1c(N2C[C@H]3[C@@H](F)CC[C@@]3(N)C2)c(F)cc2c(=O)c(C(=O)O)cn([C@@H]3C[C@@H]3F)c12`, `CC(=O)NCc1ccn(-c2cc3c(cc2C(F)(F)F)[nH]c(=O)c(=O)n3CC(=O)O)c1` is higher in melting point: 117 to 119 °C for the first, 250 to 251 °C for the second.

First: N=C(NCc1c(F)cccc1F)NN=Cc1c(Cl)cccc1Cl
Second: COc1cc(OC)cc(-n2c(-c3ccccc3F)cc(=O)c(C)c2-c2ccc(F)cc2F)c1
The melting point of the first is lower: 168 to 170 °C for the first, 171 to 173 °C for the second.

First: O=C(OC1C2OCC(O2)C(OCc2ccccc2)C1OCc1ccccc1)c1ccccc1 (centres undefined)
Second: CC(C)(C)c1cn(Cc2ccccc2)c([C@@H](Cc2c[nH]c3ccccc23)NCc2ccccc2)n1
The melting point of the first is higher: 111 to 113 °C for the first, 60 to 62 °C for the second.

First: CC(C)CN(Cc1ccccc1)c1ncnc2nc[nH]c12
Second: N#Cc1ccc(N(Cc2ccc(OCc3ccccc3)cc2)n2cnnc2)cc1-c1ccoc1
The melting point of the first is higher: 160 to 162 °C for the first, 155 to 156 °C for the second.

First: C=CCn1c(=O)c2[nH]c(/C=C/c3ccc(OC)c(OC)c3)nc2n(CC=C)c1=O
Second: COC(=O)C(C)Oc1cccc(C=Cc2ccc3ccc(Br)cc3n2)c1 (centres undefined)
The melting point of the first is higher: 252 °C for the first, 101 to 102 °C for the second.

`CC(=O)Oc1ccc2c(c1)COc1c-2cc(Br)c2cc(OC(C)=O)ccc12` and `COc1ccc(Nc2cc3c(cc2Nc2ccc(OC)cc2)C(=O)NC3=O)cc1` cannot be ordered by melting point: 192 to 194 °C for the first, 191 to 193 °C for the second.

Compared with `O=c1[nH]c2ccc(S(=O)CCN3CCC(O)(Cc4ccc(F)cc4)CC3)cc2o1` (centres undefined), `CCCCC(CC)COC(=O)C(=Cc1ccc(-c2nc3ccccc3o2)cc1)C(=O)CC` (centres undefined) is lower in melting point: 153 to 155 °C for the first, 82 to 83 °C for the second.

Compared with `CNC(=O)c1ccc(C=CC(=O)OC)cc1`, `NS(=O)(=O)c1ccc(NC(=O)CCl)cc1C(F)(F)F` is lower in melting point: 210 °C for the first, 185 to 190 °C for the second.

First: CCCCc1c(Cl)nc(N)nc1Cl
Second: CCOC(=O)c1c[nH]c2c(C#N)c(CCCNC)nn2c1=O
The melting point of the first is lower: 169 to 170 °C for the first, 285 to 287 °C for the second.

`NS(=O)(=O)c1nnc(NC(=O)c2cnn3c(C(F)F)cc(-c4ccc(C(F)(F)F)cc4)nc23)s1` showed a melting point of 284 °C.
